Measured values: patent US8471005B2 (Cephalon, Inc., priority 2008, dated 2013)
Where two headings read alike, the source gives them in different places.

How the values were obtained:
JAK2 = biological target: T1, JAK2 (Homo sapiens, UniProt O60674); experiment: Recombinant Human JAK2 Kinase Assay (TRF); assay type: biochemical; conditions: read-out: JAK2 Potency
T1 construct: host or cells: baculovirus expression system
Method in brief: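 Kinase activity of baculovirus-expressed JAK2 is followed on a surface-immobilised biotinylated peptide, with the reaction run for 20 min at room temperature in buffer containing 0.2 μM ATP and manganese. Phosphorylation is read with Eu-N1 PY100 antibody.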

ALK = biological target: T2, ALK (Homo sapiens, UniProt Q9UM73); experiment: ALK Kinase Assay (ELISA/TRF, PLC-γ substrate); assay type: biochemical; conditions: read-out: ALK Potency
T2 construct: host or cells: baculovirus expression system
T2 sequence (Q9UM73 19-1620): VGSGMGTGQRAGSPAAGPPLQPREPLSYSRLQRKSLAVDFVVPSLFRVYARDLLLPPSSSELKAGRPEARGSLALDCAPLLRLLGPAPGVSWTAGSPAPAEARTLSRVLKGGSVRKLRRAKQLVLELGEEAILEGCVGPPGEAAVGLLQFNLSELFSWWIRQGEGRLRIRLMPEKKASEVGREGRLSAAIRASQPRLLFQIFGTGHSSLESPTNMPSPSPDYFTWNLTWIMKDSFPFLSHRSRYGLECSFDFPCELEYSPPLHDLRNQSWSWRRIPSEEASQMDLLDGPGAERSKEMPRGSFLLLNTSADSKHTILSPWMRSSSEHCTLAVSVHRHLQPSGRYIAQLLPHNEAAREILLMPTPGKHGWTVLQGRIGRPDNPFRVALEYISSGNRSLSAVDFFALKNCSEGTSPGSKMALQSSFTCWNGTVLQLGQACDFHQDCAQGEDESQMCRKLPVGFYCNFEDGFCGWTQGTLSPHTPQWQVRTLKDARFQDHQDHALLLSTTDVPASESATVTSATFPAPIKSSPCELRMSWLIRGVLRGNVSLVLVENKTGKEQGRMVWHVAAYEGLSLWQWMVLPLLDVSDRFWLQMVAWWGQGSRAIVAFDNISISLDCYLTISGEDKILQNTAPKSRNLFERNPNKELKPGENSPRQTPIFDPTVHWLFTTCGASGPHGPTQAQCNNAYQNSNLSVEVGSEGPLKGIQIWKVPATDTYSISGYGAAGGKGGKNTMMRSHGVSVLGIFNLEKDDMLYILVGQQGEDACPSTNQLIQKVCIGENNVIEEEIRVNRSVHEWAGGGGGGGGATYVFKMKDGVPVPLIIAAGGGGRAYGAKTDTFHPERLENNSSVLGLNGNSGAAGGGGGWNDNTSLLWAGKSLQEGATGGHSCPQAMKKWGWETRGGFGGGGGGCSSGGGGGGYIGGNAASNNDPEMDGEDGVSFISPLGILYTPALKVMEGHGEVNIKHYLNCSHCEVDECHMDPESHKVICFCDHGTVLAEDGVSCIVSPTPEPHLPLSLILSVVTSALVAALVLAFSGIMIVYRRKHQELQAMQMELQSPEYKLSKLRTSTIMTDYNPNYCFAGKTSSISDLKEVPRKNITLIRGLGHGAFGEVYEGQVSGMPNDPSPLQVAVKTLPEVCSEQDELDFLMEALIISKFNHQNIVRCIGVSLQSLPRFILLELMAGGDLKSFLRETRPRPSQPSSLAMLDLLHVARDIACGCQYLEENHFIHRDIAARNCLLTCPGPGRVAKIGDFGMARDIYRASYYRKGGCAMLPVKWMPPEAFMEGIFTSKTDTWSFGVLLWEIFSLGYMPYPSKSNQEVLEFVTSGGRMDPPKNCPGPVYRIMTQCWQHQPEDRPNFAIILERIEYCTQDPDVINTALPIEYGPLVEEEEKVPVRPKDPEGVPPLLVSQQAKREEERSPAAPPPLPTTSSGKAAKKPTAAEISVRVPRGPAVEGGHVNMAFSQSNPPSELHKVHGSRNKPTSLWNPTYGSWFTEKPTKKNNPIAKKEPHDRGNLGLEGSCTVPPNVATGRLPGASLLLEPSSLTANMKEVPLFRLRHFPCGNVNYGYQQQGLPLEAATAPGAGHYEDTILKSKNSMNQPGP
Method in brief: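 PLC-γ substrate coated at 10 μg/mL in TBS; reaction started with 30 ng/ml ALK, run 15 min at 37° C. Phosphoproduct detected by TRF with Eu-N1-labeled PT66 anti-phosphotyrosine antibody. IC50 from sigmoidal variable-slope fit of percent inhibition versus log concentration.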

[1] = JAK2 kinase inhibition, 0.2 μM ATP
[2] = ALK kinase inhibition, 1 μM ATP

T1 sequence (O60674 whole entry): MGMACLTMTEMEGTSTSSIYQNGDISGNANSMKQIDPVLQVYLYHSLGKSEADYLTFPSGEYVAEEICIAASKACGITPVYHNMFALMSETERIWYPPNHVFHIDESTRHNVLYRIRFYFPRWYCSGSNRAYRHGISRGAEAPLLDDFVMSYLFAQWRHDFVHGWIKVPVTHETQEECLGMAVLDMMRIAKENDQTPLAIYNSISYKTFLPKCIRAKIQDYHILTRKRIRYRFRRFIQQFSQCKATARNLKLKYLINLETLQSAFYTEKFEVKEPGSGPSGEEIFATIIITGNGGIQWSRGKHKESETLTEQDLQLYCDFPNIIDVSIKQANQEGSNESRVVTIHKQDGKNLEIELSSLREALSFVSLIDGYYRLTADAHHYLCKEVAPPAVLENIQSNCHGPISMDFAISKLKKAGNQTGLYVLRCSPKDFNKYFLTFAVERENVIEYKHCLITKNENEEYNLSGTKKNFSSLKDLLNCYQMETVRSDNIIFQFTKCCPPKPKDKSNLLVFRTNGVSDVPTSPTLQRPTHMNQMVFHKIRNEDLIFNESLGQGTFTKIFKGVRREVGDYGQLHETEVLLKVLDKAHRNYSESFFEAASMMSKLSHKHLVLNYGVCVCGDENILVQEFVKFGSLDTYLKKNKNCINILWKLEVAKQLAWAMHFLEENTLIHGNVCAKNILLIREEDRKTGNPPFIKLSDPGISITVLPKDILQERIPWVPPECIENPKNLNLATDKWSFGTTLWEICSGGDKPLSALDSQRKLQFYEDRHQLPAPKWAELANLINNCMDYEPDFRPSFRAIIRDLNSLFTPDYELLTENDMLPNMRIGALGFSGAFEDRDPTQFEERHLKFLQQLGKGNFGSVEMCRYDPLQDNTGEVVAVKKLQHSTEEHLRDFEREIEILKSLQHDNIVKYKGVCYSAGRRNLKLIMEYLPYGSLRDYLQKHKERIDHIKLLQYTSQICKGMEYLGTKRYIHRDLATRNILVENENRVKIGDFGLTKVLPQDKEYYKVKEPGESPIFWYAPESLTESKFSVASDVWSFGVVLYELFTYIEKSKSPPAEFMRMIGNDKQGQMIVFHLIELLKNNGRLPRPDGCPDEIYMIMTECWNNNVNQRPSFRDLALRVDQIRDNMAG

Compound | IC50 (JAK2; JAK2 Kinase Inhibition) [nM] | IC50 (ALK; ALK Kinase Inhibition) [nM] | IC50 (JAK2; [1]) [nM] | IC50 (ALK; [2]) [nM]
O=C(c1ccccc1)c1ccc2cnc(Nc3ccc(N4CCOCC4)cc3)nn12 [Example 72, [2-(4-Morpholin-4-yl-phenylamino)-pyrrolo[2,1-f][1,2,4]triazin-7-yl]-phenyl-methanone] | < 100 | 1000 to 10000 | – | –
CN1CCN(C)C(c2ccc(Nc3ncc4ccc(-c5cccc(S(=O)(=O)N6CCOCC6)c5)n4n3)cc2)C1=O (centres unmarked) [Example 1075, 1,4-Dimethyl-3-(4-{7-[3-(morpholine-4-sulfonyl)-phenyl]-pyrrolo[2,1-f][1,2,4]triazin-2-ylamino}-phenyl)-piperazin-2-one] | – | – | < 100 | > 10000
CCN(CC)C1CCN(c2ccc(Nc3ncc4ccc(-c5cccc(S(C)(=O)=O)c5)n4n3)cc2)CC1 [Example 1137, [4-(4-Diethylamino-piperidin-1-yl)-phenyl]-[7-(3-methanesulfonyl-phenyl)-pyrrolo[2,1-f][1,2,4]triazin-2-yl]-amine] | – | – | < 100 | 100 to 1000
CN1CCN(c2ccc(Nc3ncc4ccc(-c5cnccc5NS(C)(=O)=O)n4n3)cc2)CC1 [Example 1218, N-(3-{2-[4-(4-Methyl-piperazin-1-yl)-phenylamino]-pyrrolo[2,1-f][1,2,4]triazin-7-yl}-pyridin-4-yl)-methanesulfonamide] | – | – | 100 to 1000 | 1000 to 10000
N-{2-[2-(1-Methyl-2-oxo-2,3,4,5-tetrahydro-1H-benzo[b]azepin-7-ylamino)pyrrolo[2,1-f][1,2,4]triazin-7-yl]-phenyl}methanesulfonamide [Example 625] | – | – | < 100 | 100 to 1000
COc1ccc(-c2ccc3cnc(Nc4ccc5c(c4)NC(=O)C5(C)C)nn23)cn1 [Example 658, 6-[7-(6-Methoxy-pyridin-3-yl)-pyrrolo[2,1-f][1,2,4]triazin-2-ylamino]-3,3-dimethyl-1,3-dihydro-indol-2-one] | – | – | < 100 | > 10000
CN1CCN(C)C(c2cccc(Nc3ncc4ccc(-c5cccc(S(=O)(=O)N6CCCC6)c5)n4n3)c2)C1=O (centres unmarked) [Example 1079, 1,4-Dimethyl-3-(3-{7-[3-(pyrrolidine-1-sulfonyl)-phenyl]-pyrrolo[2,1-f][1,2,4]triazin-2-ylamino}-phenyl)-piperazin-2-one] | – | – | < 100 | 1000 to 10000
COCCOc1ncc2ccc(-c3cc(Cl)ccc3OC)n2n1 [Example 191, 7-(5-Chloro-2-methoxy-phenyl)-2-(2-methoxy-ethoxy)-pyrrolo[2,1-f][1,2,4]triazine] | < 100 | > 10000 | – | –
CC(=O)Nc1cccc(Nc2ncc3ccc(-c4cccc(CN(C)S(C)(=O)=O)c4)n3n2)c1 [Example 1053, N-[3-(7-{3-[(Methanesulfonyl-methyl-amino)-methyl]-phenyl}-pyrrolo[2,1-f][1,2,4]triazin-2-ylamino)-phenyl]-acetamide] | – | – | < 100 | 1000 to 10000
CN(c1ccccc1-c1ccc2cnc(Nc3ccc(C4CCN(CC(N)=O)CC4)cc3)nn12)S(C)(=O)=O [Example 1408, 2-[4-(4-{7-[2-(Methanesulfonyl-methyl-amino)-phenyl]-pyrrolo[2,1-f][1,2,4]triazin-2-ylamino}-phenyl)-piperidin-1-yl]-acetamide] | < 100 | < 100 | – | –
CC(C)(C)NS(=O)(=O)c1cccc(-c2ccc3cnc(Nc4ccc5c(cnn5CCN5CCOCC5)c4)nn23)c1 [Example 1323, N-tert-Butyl-3-{2-[1-(2-morpholin-4-yl-ethyl)-1H-indazol-5-ylamino]-pyrrolo[2,1-f][1,2,4]triazin-7-yl}-benzenesulfonamide] | – | – | < 100 | 100 to 1000
COc1ccc(-c2ccc3cnc(Nc4ccc(C5CCN(CC(N)=O)CC5)c(NC(C)=O)c4)nn23)cn1 [Example 939, 2-(4-{2-Acetylamino-4-[7-(6-methoxy-pyridin-3-yl)-pyrrolo[2,1-f][1,2,4]triazin-2-ylamino]-phenyl}-piperidin-1-yl)-acetamide] | – | – | < 100 | 100 to 1000
CN1CCN(CCCOc2ccc(Nc3ncc4ccc(-c5cccnc5)n4n3)cc2)CC1 [Example 120, {4-[3-(4-Methyl-piperazin-1-yl)-propoxy]-phenyl}-(7-pyridin-3-yl-pyrrolo[2,1-f][1,2,4]triazin-2-yl)-amine] | < 100 | 100 to 1000 | – | –
CN1CCN(c2ccc(Nc3ncc4ccc(-c5ccc(CNCCS(C)(=O)=O)o5)n4n3)cc2)CC1 [Example 1200, (7-{5-[(2-Methanesulfonyl-ethylamino)-methyl]-furan-2-yl}-pyrrolo[2,1-f][1,2,4]triazin-2-yl)-[4-(4-methyl-piperazin-1-yl)-phenyl]-amine] | – | – | < 100 | 100 to 1000
CN1CCN(c2ccc(Nc3ncc4ccc(-c5cccc(NS(C)(=O)=O)c5)n4n3)cn2)CC1 [Example 1122, N-(3-{2-[6-(4-Methyl-piperazin-1-yl)-pyridin-3-ylamino]-pyrrolo[2,1-f][1,2,4]triazin-7-yl}-phenyl)-methanesulfonamide] | – | – | < 100 | 100 to 1000
CN1CCN(c2ccc(Nc3ncc4ccc(-c5cccc(N6CCN(C(=O)OC(C)(C)C)CC6)c5)n4n3)cc2)CC1 [Example 1166, 4-(3-{2-[4-(4-Methyl-piperazin-1-yl)-phenylamino]-pyrrolo[2,1-f][1,2,4]triazin-7-yl}-phenyl)-piperazine-1-carboxylic acid tert-butyl ester] | – | – | < 100 | 1000 to 10000

Continued, values first:

IC50 (JAK2; JAK2 Kinase Inhibition) [nM] | IC50 (ALK; ALK Kinase Inhibition) [nM] | IC50 (JAK2; [1]) [nM] | IC50 (ALK; [2]) [nM] | Compound
< 100 | 100 to 1000 | – | – | Cc1cc(N2CCN(C)CC2)ccc1Nc1ncc2ccc(-c3ccc(S(C)(=O)=O)cc3)n2n1 [Example 67, [7-(4-Methanesulfonyl-phenyl)-pyrrolo[2,1-f][1,2,4]triazin-2-yl]-[2-methyl-4-(4-methyl-piperazin-1-yl)-phenyl]-amine]
< 100 | 1000 to 10000 | – | – | COc1cccc(Nc2ncc3ccc(-c4ccccc4OC)n3n2)c1 [Example 145, (3-Methoxy-phenyl)-[7-(2-methoxy-phenyl)-pyrrolo[2,1-f][1,2,4]triazin-2-yl]-amine]
– | – | 100 to 1000 | < 100 | COc1cc2c(cc1Nc1ncc3ccc(-c4ccccc4OC)n3n1)CCC1(CCN(C)CC1)O2 [Example 997, 7-methoxy-N-[7-(2-methoxyphenyl)pyrrolo[2,1-f][1,2,4]triazin-2-yl]-1′-methyl-3,4-dihydrospiro[chromene-2,4′-piperidin]-6-amine]
– | – | 1000 to 10000 | < 100 | CCN1CC=C(c2ccc(Nc3ncc4ccc(-c5ccccc5N(C)S(C)(=O)=O)n4n3)c(OC)c2)CC1 [Example 744, N-(2-{2-[4-(1-Ethyl-1,2,3,6-tetrahydro-pyridin-4-yl)-2-methoxy-phenylamino]-pyrrolo[2,1-f][1,2,4]triazin-7-yl}-phenyl)-N-methyl-methanesulfonamide]
< 100 | < 100 | – | – | COc1cc(N2CCC(N3CCOCC3)CC2)ccc1Nc1ncc2ccc(-c3ccccc3OC(C)C)n2n1 [Example 1451, [7-(2-Isopropoxy-phenyl)-pyrrolo[2,1-f][1,2,4]triazin-2-yl]-[2-methoxy-4-(4-morpholin-4-yl-piperidin-1-yl)-phenyl]-amine]
100 to 1000 | < 100 | – | – | COc1cc(N2CCC(N3CCC(F)(F)CC3)CC2)ccc1Nc1ncc2ccc(-c3ccccc3N(C)S(C)(=O)=O)n2n1 [Example 1474, N-(2-{2-[4-(4,4-Difluoro-[1,4′]bipiperidinyl-1′-yl)-2-methoxy-phenylamino]-pyrrolo[2,1-f][1,2,4]triazin-7-yl}-phenyl)-N-methyl-methanesulfonamide]
< 100 | > 10000 | – | – | CC(C)(C)C(=O)Nc1ccccc1-c1ccc2cnc(Nc3ccc(N4CCOCC4)cc3)nn12 [Example 401, 2,2-Dimethyl-N-{2-[2-(4-morpholin-4-yl-phenylamino)-pyrrolo[2,1-f][1,2,4]triazin-7-yl]-phenyl}-propionamide]
– | – | < 100 | < 100 | Cc1cc(Nc2ncc3ccc(-c4ccc(S(C)(=O)=O)cc4)n3n2)ccc1C1CCN(C)CC1 [Example 947, [7-(4-Methanesulfonyl-phenyl)-pyrrolo[2,1-f][1,2,4]triazin-2-yl]-[3-methyl-4-(1-methyl-piperidin-4-yl)-phenyl]-amine]
< 100 | < 100 | – | – | COc1ccccc1-c1ccc2cnc(Nc3ccc(N4CCCC(N5CCN(C)CC5)C4)cc3)nn12 (centres unmarked) [Example 348, [7-(2-Methoxy-phenyl)-pyrrolo[2,1-f][1,2,4]triazin-2-yl]-{4-[3-(4-methyl-piperazin-1-yl)-piperidin-1-yl]-phenyl}-amine]
– | – | < 100 | 100 to 1000 | CN(c1ccccc1-c1ccc2cnc(Nc3ccc4c(c3)CCN(CC(N)=O)C4)nn12)S(C)(=O)=O [Example 918, 2-(6-{7-[2-(Methanesulfonyl-methyl-amino)-phenyl]-pyrrolo[2,1-f][1,2,4]triazin-2-ylamino}-3,4-dihydro-1H-isoquinolin-2-yl)-acetamide]
– | – | 1000 to 10000 | 100 to 1000 | COc1cc(N(C)C(=O)CN2CCN(C)CC2)ccc1Nc1ncc2ccc(-c3ccccc3N(C)S(C)(=O)=O)n2n1 [Example 471, N-(4-{7-[2-(Methanesulfonyl-methyl-amino)-phenyl]-pyrrolo[2,1-f][1,2,4]triazin-2-ylamino}-3-methoxy-phenyl)-N-methyl-2-(4-methyl-piperazin-1-yl)-acetamide]
– | – | 100 to 1000 | < 100 | COc1cc(C2CCCN(C)C2)ccc1Nc1ncc2ccc(-c3ccccc3N(C)S(C)(=O)=O)n2n1 (centres unmarked) [Example 806, N-(2-{2-[2-Methoxy-4-(1-methyl-piperidin-3-yl)-phenylamino]-pyrrolo[2,1-f][1,2,4]triazin-7-yl}-phenyl)-N-methyl-methanesulfonamide]
